Legend:
Type in all cases: in vivo
[1] = system: redroot pigweed (Amaranthus retroflexus, AMARE); assay: Pre-emerge test, greenhouse herbicide activity screening; conditions: phytotoxicity rating 0-100, 14 days after application
Summary of the method: (§1)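 Rating: 0–100 visual injury, 14 DAA. Application: acetone, 187 l/ha, 15–1000 g ai/ha, flat-fan track sprayer with nozzle 40–45 cm above soil or canopy. Post-emerge runs used 0.25% v/v surfactant on 2–3 leaf plants.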

[2] = system: barnyardgrass (Echinochloa crus-galli, ECHCG); assay: as above; conditions: phytotoxicity rating 0-100, 14 days after application
Summary of the method: (§2)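 Fourteen days after spraying, crop and weed injury was graded visually from 0, no effect, to 100, every plant dead. Test substances were dissolved in acetone and applied at 15–1000 g ai/ha with a flat-fan nozzle. Application was either pre-emergence, one day after sowing, or post-emergence at the 2–3 leaf stage.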

[3] = system: green foxtail (Setaria viridis, SETVI); assay: as above; conditions: phytotoxicity rating 0-100, 14 days after application
Summary of the method: as §2

[4] = system: ivyleaf morningglory (Ipomoea hederacea, IPOHE); assay: as above; conditions: phytotoxicity rating 0-100, 14 days after application
Summary of the method: as §2

[5] = system: johnsongrass (Sorghum halepense, SORHA); assay: as above; conditions: phytotoxicity rating 0-100, 14 days after application
Summary of the method: as §2

[6] = system: lambsquarters (Chenopodium album, CHEAL); assay: as above; conditions: phytotoxicity rating 0-100, 14 days after application
Summary of the method: as §2

[7] = system: large crabgrass (Digitaria sanguinalis, DIGSA); assay: as above; conditions: phytotoxicity rating 0-100, 14 days after application
Summary of the method: as §2

[8] = system: sicklepod (Cassia obtusifolia, CASOB); assay: as above; conditions: phytotoxicity rating 0-100, 14 days after application
Summary of the method: as §2

[9] = system: velvetleaf (Abutilon theophrasti, ABUTH); assay: as above; conditions: phytotoxicity rating 0-100, 14 days after application
Summary of the method: as §2

[10] = system: field corn (Zea mays L., var. Dekalb 535, CORN); assay: Pre-emerge test, crop safety; conditions: crop damage rating 0-100, 14 days after application
Summary of the method: as §1

[11] = system: upland rice (Oryza sp., var. Tebonnet, RICE); assay: Pre-emerge test, crop safety; conditions: crop damage rating 0-100, 14 days after application
Summary of the method: as §1

[12] = system: barnyardgrass (Echinochloa crus-galli, ECHCG); assay: Post-emerge test, greenhouse herbicide activity screening; conditions: post-emerge, 14 days after application, rating scale 0-100
Summary of the method: as §2

[13] = system: green foxtail (Setaria viridis, SETVI); assay: as above; conditions: post-emerge, 14 days after application, rating scale 0-100
Summary of the method: as §2

[14] = system: ivyleaf morningglory (Ipomoea hederacea, IPOHE); assay: as above; conditions: post-emerge, 14 days after application, rating scale 0-100
Summary of the method: as §2

[15] = system: johnsongrass (Sorghum halepense, SORHA); assay: as above; conditions: post-emerge, 14 days after application, rating scale 0-100
Summary of the method: as §2

[16] = system: lambsquarters (Chenopodium album, CHEAL); assay: as above; conditions: post-emerge, 14 days after application, rating scale 0-100
Summary of the method: as §2

[17] = system: large crabgrass (Digitaria sanguinalis, DIGSA); assay: as above; conditions: post-emerge, 14 days after application, rating scale 0-100
Summary of the method: as §2

[18] = system: redroot pigweed (Amaranthus retroflexus, AMARE); assay: as above; conditions: post-emerge, 14 days after application, rating scale 0-100
Summary of the method: as §2

[19] = system: sicklepod (Cassia obtusifolia, CASOB); assay: as above; conditions: post-emerge, 14 days after application, rating scale 0-100
Summary of the method: as §2

[20] = system: velvetleaf (Abutilon theophrasti, ABUTH); assay: as above; conditions: post-emerge, 14 days after application, rating scale 0-100
Summary of the method: as §2

[21] = system: field corn (Zea mays L., var. Dekalb 535, CORN); assay: Post-emerge test, crop safety; conditions: post-emerge, 14 days after application, rating scale 0-100
Summary of the method: as §2

[22] = system: upland rice (Oryza sp., var. Tebonnet, RICE); assay: Post-emerge test, crop safety; conditions: post-emerge, 14 days after application, rating scale 0-100
Summary of the method: as §2

Structure (SMILES): CCOC(=O)COc1c(Cl)cc(F)c(-n2c(=O)cc(C(F)(F)F)n(C)c2=O)c1NC(=O)c1ccc2ccccc2c1 [2-189]
- Pre-emerge Herbicidal Activity AMARE ([1]; 40.5 g ai/ha): 95
- Pre-emerge Herbicidal Activity AMARE ([1]; 162 g ai/ha): 90
- Pre-emerge Herbicidal Activity ECHCG ([2]; 40.5 g ai/ha): 0
- Pre-emerge Herbicidal Activity ECHCG ([2]; 162 g ai/ha): 0
- Pre-emerge Herbicidal Activity SETVI ([3]; 40.5 g ai/ha): 0
- Pre-emerge Herbicidal Activity SETVI ([3]; 162 g ai/ha): 0
- Pre-emerge Herbicidal Activity IPOHE ([4]; 40.5 g ai/ha): 0
- Pre-emerge Herbicidal Activity IPOHE ([4]; 162 g ai/ha): 20
- Pre-emerge Herbicidal Activity SORHA ([5]; 40.5 g ai/ha): 0
- Pre-emerge Herbicidal Activity SORHA ([5]; 162 g ai/ha): 0
- Pre-emerge Herbicidal Activity CHEAL ([6]; 40.5 g ai/ha): 100
- Pre-emerge Herbicidal Activity CHEAL ([6]; 162 g ai/ha): 100
- Pre-emerge Herbicidal Activity DIGSA ([7]; 40.5 g ai/ha): 0
- Pre-emerge Herbicidal Activity DIGSA ([7]; 162 g ai/ha): 0
- Pre-emerge Herbicidal Activity CASOB ([8]; 40.5 g ai/ha): 0
- Pre-emerge Herbicidal Activity CASOB ([8]; 162 g ai/ha): 10
- Pre-emerge Herbicidal Activity ABUTH ([9]; 40.5 g ai/ha): 70
- Pre-emerge Herbicidal Activity ABUTH ([9]; 162 g ai/ha): 100
- Pre-emerge Herbicidal Activity CORN ([10]; 40.5 g ai/ha): 0
- Pre-emerge Herbicidal Activity CORN ([10]; 162 g ai/ha): 0
- Pre-emerge Herbicidal Activity RICE ([11]; 40.5 g ai/ha): 0
- Pre-emerge Herbicidal Activity RICE ([11]; 162 g ai/ha): 0
- ECHCG phytotoxicity rating ([12]; 40.5 g ai/ha): 0
- ECHCG phytotoxicity rating ([12]; 162 g ai/ha): 10
- SETVI phytotoxicity rating ([13]; 40.5 g ai/ha): 0
- SETVI phytotoxicity rating ([13]; 162 g ai/ha): 0
- IPOHE phytotoxicity rating ([14]; 40.5 g ai/ha): 60
- IPOHE phytotoxicity rating ([14]; 162 g ai/ha): 100
- SORHA phytotoxicity rating ([15]; 40.5 g ai/ha): 0
- SORHA phytotoxicity rating ([15]; 162 g ai/ha): 0
- CHEAL phytotoxicity rating ([16]; 40.5 g ai/ha): 100
- CHEAL phytotoxicity rating ([16]; 162 g ai/ha): 100
- DIGSA phytotoxicity rating ([17]; 40.5 g ai/ha): 0
- DIGSA phytotoxicity rating ([17]; 162 g ai/ha): 0
- AMARE phytotoxicity rating ([18]; 40.5 g ai/ha): 100
- AMARE phytotoxicity rating ([18]; 162 g ai/ha): 100
- CASOB phytotoxicity rating ([19]; 40.5 g ai/ha): 40
- CASOB phytotoxicity rating ([19]; 162 g ai/ha): 60
- ABUTH phytotoxicity rating ([20]; 40.5 g ai/ha): 85
- ABUTH phytotoxicity rating ([20]; 162 g ai/ha): 100
- CORN phytotoxicity rating (crop damage) ([21]; 40.5 g ai/ha): 0
- CORN phytotoxicity rating (crop damage) ([21]; 162 g ai/ha): 5
- RICE phytotoxicity rating (crop damage) ([22]; 40.5 g ai/ha): 0
- RICE phytotoxicity rating (crop damage) ([22]; 162 g ai/ha): 5

Structure (SMILES): CCOC(=O)COc1c(Cl)cc(F)c(-n2c(=O)cc(C(F)(F)F)n(C)c2=O)c1NC(=O)C=Cc1ccccc1 [2-190]
- Pre-emerge Herbicidal Activity AMARE ([1]; 63 g ai/ha): 95
- Pre-emerge Herbicidal Activity AMARE ([1]; 250 g ai/ha): 100
- Pre-emerge Herbicidal Activity ECHCG ([2]; 63 g ai/ha): 0
- Pre-emerge Herbicidal Activity ECHCG ([2]; 250 g ai/ha): 0
- Pre-emerge Herbicidal Activity SETVI ([3]; 63 g ai/ha): 0
- Pre-emerge Herbicidal Activity SETVI ([3]; 250 g ai/ha): 30
- Pre-emerge Herbicidal Activity IPOHE ([4]; 63 g ai/ha): 0
- Pre-emerge Herbicidal Activity IPOHE ([4]; 250 g ai/ha): 90
- Pre-emerge Herbicidal Activity SORHA ([5]; 63 g ai/ha): 0
- Pre-emerge Herbicidal Activity SORHA ([5]; 250 g ai/ha): 0
- Pre-emerge Herbicidal Activity CHEAL ([6]; 63 g ai/ha): 100
- Pre-emerge Herbicidal Activity CHEAL ([6]; 250 g ai/ha): 100
- Pre-emerge Herbicidal Activity DIGSA ([7]; 63 g ai/ha): 0
- Pre-emerge Herbicidal Activity DIGSA ([7]; 250 g ai/ha): 30
- Pre-emerge Herbicidal Activity CASOB ([8]; 63 g ai/ha): 30
- Pre-emerge Herbicidal Activity CASOB ([8]; 250 g ai/ha): 70
- Pre-emerge Herbicidal Activity ABUTH ([9]; 63 g ai/ha): 100
- Pre-emerge Herbicidal Activity ABUTH ([9]; 250 g ai/ha): 100
- Pre-emerge Herbicidal Activity CORN ([10]; 63 g ai/ha): 0
- Pre-emerge Herbicidal Activity CORN ([10]; 250 g ai/ha): 0
- Pre-emerge Herbicidal Activity RICE ([11]; 63 g ai/ha): 10
- Pre-emerge Herbicidal Activity RICE ([11]; 250 g ai/ha): 20
- ECHCG phytotoxicity rating ([12]; 63 g ai/ha): 0
- phytotoxicity rating ECHCG ([12]; 250 g ai/ha): 10
- SETVI phytotoxicity rating ([13]; 63 g ai/ha): 0
- phytotoxicity rating SETVI ([13]; 250 g ai/ha): 0
- IPOHE phytotoxicity rating ([14]; 63 g ai/ha): 50
- phytotoxicity rating IPOHE ([14]; 250 g ai/ha): 90
- SORHA phytotoxicity rating ([15]; 63 g ai/ha): 0
- phytotoxicity rating SORHA ([15]; 250 g ai/ha): 50
- CHEAL phytotoxicity rating ([16]; 63 g ai/ha): 90
- phytotoxicity rating CHEAL ([16]; 250 g ai/ha): 100
- DIGSA phytotoxicity rating ([17]; 63 g ai/ha): 0
- phytotoxicity rating DIGSA ([17]; 250 g ai/ha): 0
- AMARE phytotoxicity rating ([18]; 63 g ai/ha): 95
- phytotoxicity rating AMARE ([18]; 250 g ai/ha): 99
- CASOB phytotoxicity rating ([19]; 63 g ai/ha): 20
- phytotoxicity rating CASOB ([19]; 250 g ai/ha): 80
- ABUTH phytotoxicity rating ([20]; 63 g ai/ha): 90
- phytotoxicity rating ABUTH ([20]; 250 g ai/ha): 90
- CORN phytotoxicity rating (crop damage) ([21]; 63 g ai/ha): 5
- phytotoxicity rating CORN (crop damage) ([21]; 250 g ai/ha): 10
- RICE phytotoxicity rating (crop damage) ([22]; 63 g ai/ha): 0
- phytotoxicity rating RICE (crop damage) ([22]; 250 g ai/ha): 5
